# Assay results: the kinase profiling compilation of Christmann-Franck et al. (2016)
# How the values were obtained:
# Assay in all cases: KINOMEscan competition binding
# Settings in all cases: compound 10.0 µM
# ANKK1 (human) = ANKK1 (human) (UniProt Q8NFD2)
# ULK3 (human) = ULK3 (human) (UniProt Q6PHR2)
# [1] = system: KIT (human), P10721 [D816V]
# RPS6KA2 KD1 (human) = RPS6KA2 KD1 (human) (UniProt Q15349)
# DCLK3 (human) = DCLK3 (human) (UniProt Q9C098)
# LATS2 (human) = LATS2 (human) (UniProt Q9NRM7)
# PRKG1 (human) = PRKG1 (human) (UniProt Q13976)
# TEK (human) = TEK (human) (UniProt Q02763)
# WEE1 (human) = WEE1 (human) (UniProt P30291)
# EPHA6 (human) = EPHA6 (human) (UniProt Q9UF33)
# MAP3K12 (human) = MAP3K12 (human) (UniProt Q12852)
# FLT1 (human) = FLT1 (human) (UniProt P17948)
# RIPK4 (human) = RIPK4 (human) (UniProt P57078)
# CAMK4 (human) = CAMK4 (human) (UniProt Q16566)
# PRKG2 (human) = PRKG2 (human) (UniProt Q13237)
# DCLK2 (human) = DCLK2 (human) (UniProt Q8N568)
# DAPK1 (human) = DAPK1 (human) (UniProt P53355)
# ACVRL1 (human) = ACVRL1 (human) (UniProt P37023)
# CAMK1D (human) = CAMK1D (human) (UniProt Q8IU85)
# NTRK2 (human) = NTRK2 (human) (UniProt Q16620)
# LYN (human) = LYN (human) (UniProt P07948)
# PIM3 (human) = PIM3 (human) (UniProt Q86V86)
# AKT1 (human) = AKT1 (human) (UniProt P31749)
# NUAK1 (human) = NUAK1 (human) (UniProt O60285)
# RET (human) = RET (human) (UniProt P07949)
# NEK2 (human) = NEK2 (human) (UniProt P51955)
# PRKCE (human) = PRKCE (human) (UniProt Q02156)
# MAPKAPK5 (human) = MAPKAPK5 (human) (UniProt Q8IW41)
# ERBB4 (human) = ERBB4 (human) (UniProt Q15303)
# RPS6KA6 KD2 (human) = RPS6KA6 KD2 (human) (UniProt Q9UK32)
# RPS6KA5 KD2 (human) = RPS6KA5 KD2 (human) (UniProt O75582)
# MAP4K2 (human) = MAP4K2 (human) (UniProt Q12851)
# MAPKAPK2 (human) = MAPKAPK2 (human) (UniProt P49137)
# MAPK15 (human) = MAPK15 (human) (UniProt Q8TD08)
# PHKG1 (human) = PHKG1 (human) (UniProt Q16816)
# CAMKK1 (human) = CAMKK1 (human) (UniProt Q8N5S9)
# MYLK4 (human) = MYLK4 (human) (UniProt Q86YV6)
# CDK11B (human) = CDK11B (human) (UniProt P21127)
# EPHB2 (human) = EPHB2 (human) (UniProt P29323)
# Sequence of NTRK2 (human) (Q16620 whole entry, looked up): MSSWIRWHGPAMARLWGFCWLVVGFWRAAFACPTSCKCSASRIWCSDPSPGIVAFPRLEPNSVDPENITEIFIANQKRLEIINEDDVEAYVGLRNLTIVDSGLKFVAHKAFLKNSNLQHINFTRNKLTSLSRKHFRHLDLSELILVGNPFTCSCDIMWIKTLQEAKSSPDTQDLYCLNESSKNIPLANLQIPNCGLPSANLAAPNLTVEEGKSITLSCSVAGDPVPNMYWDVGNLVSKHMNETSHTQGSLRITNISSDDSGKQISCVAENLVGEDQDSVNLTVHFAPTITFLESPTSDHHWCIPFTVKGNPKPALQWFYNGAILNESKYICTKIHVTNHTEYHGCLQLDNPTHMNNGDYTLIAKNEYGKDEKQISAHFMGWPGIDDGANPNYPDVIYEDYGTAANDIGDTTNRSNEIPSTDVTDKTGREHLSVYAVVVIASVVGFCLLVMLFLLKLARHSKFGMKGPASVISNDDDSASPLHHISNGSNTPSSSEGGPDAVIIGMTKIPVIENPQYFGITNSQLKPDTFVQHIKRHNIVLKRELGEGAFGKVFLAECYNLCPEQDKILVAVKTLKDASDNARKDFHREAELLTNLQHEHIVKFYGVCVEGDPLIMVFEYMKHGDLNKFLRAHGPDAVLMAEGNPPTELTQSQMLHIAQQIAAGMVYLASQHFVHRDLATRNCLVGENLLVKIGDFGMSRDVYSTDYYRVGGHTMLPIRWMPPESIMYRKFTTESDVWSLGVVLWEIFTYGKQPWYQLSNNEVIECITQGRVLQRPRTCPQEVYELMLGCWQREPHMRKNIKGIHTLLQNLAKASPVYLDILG
# Sequence of CAMK1D (human) (Q8IU85 whole entry, looked up): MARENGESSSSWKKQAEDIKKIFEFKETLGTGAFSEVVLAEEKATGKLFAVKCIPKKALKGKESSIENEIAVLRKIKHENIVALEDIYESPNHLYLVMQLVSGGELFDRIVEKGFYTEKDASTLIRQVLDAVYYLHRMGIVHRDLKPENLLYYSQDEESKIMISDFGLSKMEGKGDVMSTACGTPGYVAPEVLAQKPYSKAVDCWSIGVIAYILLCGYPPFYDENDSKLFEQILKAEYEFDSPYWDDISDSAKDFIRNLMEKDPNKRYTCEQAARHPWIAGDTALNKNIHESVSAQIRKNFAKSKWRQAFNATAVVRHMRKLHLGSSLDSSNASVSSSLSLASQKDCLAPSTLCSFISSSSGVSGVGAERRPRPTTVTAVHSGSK
# Sequence of WEE1 (human) (P30291 whole entry, looked up): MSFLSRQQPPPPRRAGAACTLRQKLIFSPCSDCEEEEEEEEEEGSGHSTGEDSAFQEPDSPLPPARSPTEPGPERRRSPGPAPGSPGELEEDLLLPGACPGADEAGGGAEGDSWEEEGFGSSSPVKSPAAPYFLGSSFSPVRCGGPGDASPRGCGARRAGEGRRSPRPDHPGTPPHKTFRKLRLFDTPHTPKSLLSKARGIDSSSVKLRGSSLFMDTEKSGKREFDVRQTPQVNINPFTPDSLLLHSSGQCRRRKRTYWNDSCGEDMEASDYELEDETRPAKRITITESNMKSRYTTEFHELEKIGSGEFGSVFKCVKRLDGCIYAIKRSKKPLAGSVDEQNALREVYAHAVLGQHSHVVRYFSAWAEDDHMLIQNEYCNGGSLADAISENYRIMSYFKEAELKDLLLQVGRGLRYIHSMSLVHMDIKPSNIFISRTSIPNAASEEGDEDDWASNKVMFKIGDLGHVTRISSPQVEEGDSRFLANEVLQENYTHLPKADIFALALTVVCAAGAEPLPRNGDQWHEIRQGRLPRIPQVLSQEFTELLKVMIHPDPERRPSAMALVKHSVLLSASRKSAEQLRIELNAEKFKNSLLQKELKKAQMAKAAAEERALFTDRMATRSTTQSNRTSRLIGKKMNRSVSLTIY
# Sequence of RPS6KA2 KD1 (human) (Q15349 whole entry, looked up): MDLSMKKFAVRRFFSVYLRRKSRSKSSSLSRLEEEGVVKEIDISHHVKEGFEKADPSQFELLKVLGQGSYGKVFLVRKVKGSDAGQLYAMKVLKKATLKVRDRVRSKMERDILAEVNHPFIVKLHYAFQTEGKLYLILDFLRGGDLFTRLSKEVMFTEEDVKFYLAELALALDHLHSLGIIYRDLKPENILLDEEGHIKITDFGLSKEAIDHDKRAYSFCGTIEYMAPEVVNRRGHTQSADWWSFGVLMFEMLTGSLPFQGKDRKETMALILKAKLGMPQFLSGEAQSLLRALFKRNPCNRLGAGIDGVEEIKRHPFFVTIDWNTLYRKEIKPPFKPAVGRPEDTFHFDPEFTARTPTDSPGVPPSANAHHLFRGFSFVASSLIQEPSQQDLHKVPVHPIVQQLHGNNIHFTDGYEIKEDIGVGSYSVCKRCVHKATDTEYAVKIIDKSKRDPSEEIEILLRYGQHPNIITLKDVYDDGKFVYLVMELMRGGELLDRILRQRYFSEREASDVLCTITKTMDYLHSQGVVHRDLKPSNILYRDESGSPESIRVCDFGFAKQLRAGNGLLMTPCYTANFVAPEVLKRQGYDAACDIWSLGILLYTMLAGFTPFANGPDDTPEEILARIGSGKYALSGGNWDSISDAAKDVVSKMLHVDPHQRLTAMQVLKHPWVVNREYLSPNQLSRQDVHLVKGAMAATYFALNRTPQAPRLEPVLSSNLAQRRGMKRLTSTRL
# Sequence of RPS6KA6 KD2 (human) (Q9UK32 whole entry, looked up): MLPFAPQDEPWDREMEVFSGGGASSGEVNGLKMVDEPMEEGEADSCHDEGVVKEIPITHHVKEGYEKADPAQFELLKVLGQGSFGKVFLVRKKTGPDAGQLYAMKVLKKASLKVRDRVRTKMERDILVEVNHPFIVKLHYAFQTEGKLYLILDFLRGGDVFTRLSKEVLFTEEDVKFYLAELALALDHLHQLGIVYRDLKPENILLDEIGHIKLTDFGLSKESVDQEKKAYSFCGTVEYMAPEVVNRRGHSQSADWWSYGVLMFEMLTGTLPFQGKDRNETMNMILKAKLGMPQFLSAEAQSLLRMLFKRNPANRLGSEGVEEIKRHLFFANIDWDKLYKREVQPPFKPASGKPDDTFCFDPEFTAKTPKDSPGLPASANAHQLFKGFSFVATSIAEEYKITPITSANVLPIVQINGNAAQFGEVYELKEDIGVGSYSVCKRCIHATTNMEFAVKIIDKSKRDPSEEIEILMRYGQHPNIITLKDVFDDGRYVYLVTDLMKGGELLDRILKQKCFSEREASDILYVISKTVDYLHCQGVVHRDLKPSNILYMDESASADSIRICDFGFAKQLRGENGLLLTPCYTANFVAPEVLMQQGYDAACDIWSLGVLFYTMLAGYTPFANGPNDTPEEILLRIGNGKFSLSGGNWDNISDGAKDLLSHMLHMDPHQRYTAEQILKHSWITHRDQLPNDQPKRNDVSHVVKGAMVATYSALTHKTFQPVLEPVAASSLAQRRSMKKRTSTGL
# Sequence of TEK (human) (Q02763 whole entry, looked up): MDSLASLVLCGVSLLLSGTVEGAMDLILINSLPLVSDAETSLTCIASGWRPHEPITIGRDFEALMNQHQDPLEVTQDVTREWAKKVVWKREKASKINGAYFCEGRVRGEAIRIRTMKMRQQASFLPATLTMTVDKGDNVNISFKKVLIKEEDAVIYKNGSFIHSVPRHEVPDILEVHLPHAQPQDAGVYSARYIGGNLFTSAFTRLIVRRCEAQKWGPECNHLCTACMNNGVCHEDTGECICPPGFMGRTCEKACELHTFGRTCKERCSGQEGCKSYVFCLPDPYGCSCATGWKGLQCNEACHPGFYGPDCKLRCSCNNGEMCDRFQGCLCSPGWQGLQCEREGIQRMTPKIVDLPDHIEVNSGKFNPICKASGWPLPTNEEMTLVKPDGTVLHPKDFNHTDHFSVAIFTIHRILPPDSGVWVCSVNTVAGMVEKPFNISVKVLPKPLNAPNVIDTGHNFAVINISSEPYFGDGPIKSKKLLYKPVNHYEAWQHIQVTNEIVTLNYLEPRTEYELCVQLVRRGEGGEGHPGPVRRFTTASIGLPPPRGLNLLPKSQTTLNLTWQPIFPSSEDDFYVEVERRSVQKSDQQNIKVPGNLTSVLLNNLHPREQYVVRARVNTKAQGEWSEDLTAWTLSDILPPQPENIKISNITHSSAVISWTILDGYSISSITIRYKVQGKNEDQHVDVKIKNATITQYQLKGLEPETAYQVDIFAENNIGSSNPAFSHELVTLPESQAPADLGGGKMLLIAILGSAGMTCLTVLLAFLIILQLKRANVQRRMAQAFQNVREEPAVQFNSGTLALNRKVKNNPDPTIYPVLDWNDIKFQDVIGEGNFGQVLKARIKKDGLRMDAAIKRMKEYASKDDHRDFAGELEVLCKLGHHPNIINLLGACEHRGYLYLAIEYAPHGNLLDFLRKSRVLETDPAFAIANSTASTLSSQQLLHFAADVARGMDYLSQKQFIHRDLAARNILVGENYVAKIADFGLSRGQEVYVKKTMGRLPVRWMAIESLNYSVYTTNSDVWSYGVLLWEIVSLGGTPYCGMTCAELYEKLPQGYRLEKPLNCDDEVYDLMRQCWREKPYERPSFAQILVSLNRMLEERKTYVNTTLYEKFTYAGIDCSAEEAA
# Sequence of MYLK4 (human) (Q86YV6 whole entry, looked up): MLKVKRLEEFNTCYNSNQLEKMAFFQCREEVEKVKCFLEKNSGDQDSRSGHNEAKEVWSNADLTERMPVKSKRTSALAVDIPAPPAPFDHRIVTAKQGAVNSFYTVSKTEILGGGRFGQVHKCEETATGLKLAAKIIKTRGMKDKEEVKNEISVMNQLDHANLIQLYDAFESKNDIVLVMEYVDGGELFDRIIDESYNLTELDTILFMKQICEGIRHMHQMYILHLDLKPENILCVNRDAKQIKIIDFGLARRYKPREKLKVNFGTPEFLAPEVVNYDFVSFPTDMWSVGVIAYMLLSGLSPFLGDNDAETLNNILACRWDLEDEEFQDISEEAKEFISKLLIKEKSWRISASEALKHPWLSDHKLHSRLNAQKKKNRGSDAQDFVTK
compound,measurement,setting,value
O=C(NOC[C@H](O)CO)c1ccc(F)c(F)c1Nc1ccc(I)cc1F,"kinase still bound, per cent of control",ANKK1 (human),64%
same,"kinase still bound, per cent of control",ULK3 (human),89%
same,"kinase still bound, per cent of control",[1],87%
same,"kinase still bound, per cent of control",RPS6KA2 KD1 (human),100%
same,"kinase still bound, per cent of control",DCLK3 (human),100%
same,"kinase still bound, per cent of control",LATS2 (human),74%
same,"kinase still bound, per cent of control",PRKG1 (human),100%
same,"kinase still bound, per cent of control",TEK (human),100%
same,"kinase still bound, per cent of control",WEE1 (human),67%
same,"kinase still bound, per cent of control",EPHA6 (human),94%
same,"kinase still bound, per cent of control",MAP3K12 (human),78%
same,"kinase still bound, per cent of control",FLT1 (human),94%
same,"kinase still bound, per cent of control",RIPK4 (human),100%
same,"kinase still bound, per cent of control",CAMK4 (human),100%
same,"kinase still bound, per cent of control",PRKG2 (human),86%
same,"kinase still bound, per cent of control",DCLK2 (human),100%
same,"kinase still bound, per cent of control",DAPK1 (human),100%
same,"kinase still bound, per cent of control",ACVRL1 (human),100%
same,"kinase still bound, per cent of control",CAMK1D (human),89%
same,"kinase still bound, per cent of control",NTRK2 (human),100%
same,"kinase still bound, per cent of control",LYN (human),72%
same,"kinase still bound, per cent of control",PIM3 (human),100%
same,"kinase still bound, per cent of control",AKT1 (human),81%
same,"kinase still bound, per cent of control",NUAK1 (human),81%
same,"kinase still bound, per cent of control",RET (human),90%
same,"kinase still bound, per cent of control",NEK2 (human),70%
same,"kinase still bound, per cent of control",PRKCE (human),100%
same,"kinase still bound, per cent of control",MAPKAPK5 (human),100%
same,"kinase still bound, per cent of control",ERBB4 (human),100%
same,"kinase still bound, per cent of control",RPS6KA6 KD2 (human),80%
same,"kinase still bound, per cent of control",RPS6KA5 KD2 (human),100%
same,"kinase still bound, per cent of control",MAP4K2 (human),100%
same,"kinase still bound, per cent of control",MAPKAPK2 (human),84%
same,"kinase still bound, per cent of control",MAPK15 (human),100%
same,"kinase still bound, per cent of control",PHKG1 (human),100%
same,"kinase still bound, per cent of control",CAMKK1 (human),100%
same,"kinase still bound, per cent of control",MYLK4 (human),100%
same,"kinase still bound, per cent of control",CDK11B (human),97%
same,"kinase still bound, per cent of control",EPHB2 (human),73%
